These are literature values, as cited in publication PMC2229313 (The Journal of General Physiology, 1996).

This data set deals with IFM/QQQ mutant Na channel. Particulars: cytoplasmic application; ref Eaholtz et al., 1994.

For the substance KIQMK, the “effect on kinetics of IFM/QQQ mutant Na currents” value is “fails to affect the kinetics of the inactivation-impaired Na channel”.
